# Reference: US20220324835A1 (Nurix Therapeutics, Inc., priority 2018, published 2022)
# System: T-cells
# Assay: In vivo activity: CD25 expression on CD4+ or CD8+ T-cells of mice stimulated with anti-CD3 antibody
# Conditions: 2 μg anti-CD3 antibody, 24 hours
# Experimental: A method of determining the pharmacodynamic profile of Cbl-b inhibitors was performed by dosing strains of mice with competent immune systems such as C57BL/6 or BALB/c with a Cbl-b inhibitor. The Cbl-b inhibitor was dissolved in a suitable formulation and administered by one of various routes such as intravenous (IV), intraperitoneal (IP), subcutaneous (SC), or oral (PO), at a suitable dose level and frequency (e.g. twice per day BID or thrice per day TID) as informed by prior pharmacokinetic and tolerability studies. Following administration of the Cbl-b inhibitor, T-cells and indirectly other immune cells (e.g. via cytokine production) were stimulated in vivo by administration of an anti-CD3 antibody or antigen-binding fragment thereof in PBS at defined amounts such as 2 μg or 10 μg per animal by routes such as IV or IP (See Hirsh et al., J. Immunol., 1989; Ferran, et al., Eur. J. Immunol., 1990). Additional study control arms included groups of mice treated with a vehicle formulation alone (i.e., formulation without the Cbl-b inhibitor and anti-CD3 antibody), a formulation containing the Cbl-b inhibitor alone, a formulation containing the anti-CD3 antibody alone, PBS alone, or combinations of these agents. The level of immune activation was then assessed by analysis of plasma cytokine levels and/or expression of activation markers on immune cells (e.g. T-cells). Blood or lymphoid organs (e.g. spleen) were collected at defined time points (e.g. 8 hours or 24 hours). Blood samples were processed to collect plasma for determination of cytokine levels using standard methods known in the art. Cytokines measured included IL-2, IFNγ, and TNFα. Additional blood samples and lymphoid tissues were processed for flow cytometric analysis of immune cells (e.g. T-cells) using standard methods to determine expression of cell type-specific markers and activation markers such as CD25 and/or CD69. Augmentation of immune stimulation by Cbl-b inhibitor administration was assessed by comparing the relative concentrations of cytokines in plasma, or the expression levels of activation markers on immune cells between appropriate groups (e.g. mice treated with Cbl-b inhibitor and 2 μg anti-CD3 antibody versus mice treated with vehicle and 2 μg anti-CD3 antibody).
# Cbl-b inhibitors were tested to determine their ability to induce or enhance the level of cytokines (e.g. IL-2, IFNγ, and TNFα) in blood obtained from treated mice stimulated with an anti-CD3 antibody, which is indicative of modulation of the immune response. Cbl-b inhibitors were also tested to determine their ability to induce or enhance the expression of cell surface markers on T-cells (e.g. CD25 and/or CD69) isolated from treated mice stimulated with an anti-CD3 antibody, which is indicative of modulation of the immune response.
# Readouts were reported as fold change over baseline. The fold change was calculated from the mean value of mice treated with Cbl-b inhibitor and 2 μg anti-CD3 antibody, with the baseline defined as the mean value of mice treated with vehicle and 2 μg anti-CD3 antibody. Increases in the percentage of cells with surface expression of CD25 on CD4+ T-cells or CD8+ T-cells greater than 1.5-fold over baseline at 24 hours were considered a positive response. Increases in the plasma concentration of IL-2, IFNγ, and TNFα greater than 1.5-fold over baseline at 8 hours post-stimulation were also considered a positive response (Table 8). Fold changes were ranked into bins according to their readouts as follows: A indicates >2.50, B indicates 2.01-2.50, C indicates 1.51-2.00, D indicates 1.00-1.50, and E indicates <1.00.
SMILES,CD4+ T-cell % CD25+ (135 mpk PO BID),CD8+ T-cell % CD25+ (135 mpk PO BID),CD4+ T-cell % CD25+ (90 mpk PO BID),CD8+ T-cell % CD25+ (90 mpk PO BID),CD4+ T-cell % CD25+ (180 mpk PO BID),CD8+ T-cell % CD25+ (180 mpk PO BID),CD4+ T-cell % CD25+ (45 mpk PO BID),CD8+ T-cell % CD25+ (45 mpk PO BID),CD4+ T-cell % CD25+ (45 mpk IP BID),CD8+ T-cell % CD25+ (45 mpk IP BID)
"C[C@H](c1cc2c(c(C(F)(F)F)c1)CN(c1cccc(C3(Cc4nncn4C)COC3)c1)C2=O)N1CCC(C)(F)CC1 [Example 553b, (R)-6-(1-(4-fluoro-4-methylpiperidin-1-yl)ethyl)-2-(3-(3-((4-methyl-4H-1,2,4-triazol-3-yl)methyl)oxetan-3-yl)phenyl)-4-(trifluoromethyl)isoindolin-1-one]",A (A indicates >2.50),D (D indicates 1.00-1.50),–,–,–,–,–,–,–,–
"Cn1cnnc1[C@H](F)C1(c2cccc(N3Cc4c(cc(CN5CCC(F)CC5)cc4C(F)(F)F)C3=O)c2)COC1 [Example 670b, (R)-2-(3-(3-(fluoro(4-methyl-4H-1,2,4-triazol-3-yl)methyl)oxetan-3-yl)phenyl)-6-((4-fluoropiperidin-1-yl)methyl)-4-(trifluoromethyl)isoindolin-1-one]",C (C indicates 1.51-2.00),D (D indicates 1.00-1.50),–,–,–,–,–,–,–,–
"Cn1cnnc1CC1(c2cccc(N3Cc4c(cc(CN5CC[C@H](F)C5)cc4C(F)(F)F)C3=O)c2)COC1 [Compound 410, 6-{[(3S)-3-fluoropyrrolidin-1-yl]methyl}-2-(3-{3-[(4-methyl-4H-1,2,4-triazol-3-yl)methyl]oxetan-3-yl}phenyl)-4-(trifluoromethyl)-2,3-dihydro-1H-isoindol-1-one]",D (D indicates 1.00-1.50),D (D indicates 1.00-1.50),D (D indicates 1.00-1.50),D (D indicates 1.00-1.50),D (D indicates 1.00-1.50),D (D indicates 1.00-1.50),–,–,–,–
"C[C@@H](c1cc2c(c(C(F)(F)F)c1)CN(c1cccc(C3(Cc4nncn4C)COC3)c1)C2=O)N1C[C@H]2C[C@H]2C1 [Compound 541a, 6-((1S)-1-(3-azabicyclo[3.1.0]hexan-3-yl)ethyl)-2-(3-(3-((4-methyl-4H-1,2,4-triazol-3-yl)methyl)oxetan-3-yl)phenyl)-4-(trifluoromethyl)isoindolin-1-one]",D (D indicates 1.00-1.50),D (D indicates 1.00-1.50),–,–,–,–,–,–,–,–
"Cn1cnnc1CC1(c2cccc(N3Cc4c(cc(CN5CC[C@@H](C#N)C5)cc4C(F)(F)F)C3=O)c2)COC1 [Compound 421, (R)-1-((2-(3-(3-((4-methyl-4H-1,2,4-triazol-3-yl)methyl)oxetan-3-yl)phenyl)-3-oxo-7-(trifluoromethyl)isoindolin-5-yl)methyl)pyrrolidine-3-carbonitrile]",E (E indicates <1.00),E (E indicates <1.00),E (E indicates <1.00),E (E indicates <1.00),E (E indicates <1.00),E (E indicates <1.00),–,–,–,–
"C[C@H](c1cc2c(c(C(F)(F)F)c1)CN(c1cccc(C3([C@H](F)c4nncn4C)COC3)c1)C2=O)N1CCC2(CC2)C1 (stereo in doubt) [Example 575, 6-((R)-1-(5-Azaspiro[2.4]heptan-5-yl)ethyl)-2-(3-(3-((S)-fluoro(4-methyl-4H-1,2,4-triazol-3-yl)methyl)oxetan-3-yl)phenyl)-4-(trifluoromethyl)isoindolin-1-one]",–,–,A (A indicates >2.50),C (C indicates 1.51-2.00),A (A indicates >2.50),C (C indicates 1.51-2.00),C (C indicates 1.51-2.00),D (D indicates 1.00-1.50),–,–
"Cn1cnnc1CC1(c2cccc(NC(=O)c3cc(CN4CC[C@H](F)C4)cc(C4CC4)n3)c2)COC1 [Compound 496, 6-cyclopropyl-4-{[(3S)-3-fluoropyrrolidin-1-yl]methyl}-N-(3-{3-[(4-methyl-1,2,4-triazol-3-yl)methyl]oxetan-3-yl}phenyl)pyridine-2-carboxamide]",C (C indicates 1.51-2.00),D (D indicates 1.00-1.50),–,–,–,–,–,–,–,–
"Cn1cnnc1[C@@H](F)C1(c2cccc(N3Cc4c(cc(CN5CCC(F)CC5)cc4C(F)(F)F)C3=O)c2)COC1 [Example 670a, (S)-2-(3-(3-(fluoro(4-methyl-4H-1,2,4-triazol-3-yl)methyl)oxetan-3-yl)phenyl)-6-((4-fluoropiperidin-1-yl)methyl)-4-(trifluoromethyl)isoindolin-1-one]",B (B indicates 2.01-2.50),D (D indicates 1.00-1.50),–,–,–,–,–,–,–,–
"Cn1cnnc1CC1(c2cccc(N3Cc4c(cc(CN5CCC(C)(F)CC5)cc4C(F)(F)F)C3=O)c2)COC1 [Example 620, 6-((4-fluoro-4-methylpiperidin-1-yl)methyl)-2-(3-(3-((4-methyl-4H-1,2,4-triazol-3-yl)methyl)oxetan-3-yl)phenyl)-4-(trifluoromethyl)isoindolin-1-one]",D (D indicates 1.00-1.50),E (E indicates <1.00),D (D indicates 1.00-1.50),D (D indicates 1.00-1.50),D (D indicates 1.00-1.50),E (E indicates <1.00),–,–,–,–
"C[C@@H](c1cc2c(c(C(F)(F)F)c1)CN(c1cccc(C3(Cc4nncn4C)COC3)c1)C2=O)N1CCC(C)(F)CC1 [Example 553a, (S)-6-(1-(4-fluoro-4-methylpiperidin-1-yl)ethyl)-2-(3-(3-((4-methyl-4H-1,2,4-triazol-3-yl)methyl)oxetan-3-yl)phenyl)-4-(trifluoromethyl)isoindolin-1-one]",D (D indicates 1.00-1.50),D (D indicates 1.00-1.50),–,–,–,–,–,–,–,–
"CN1CC2CCC(C1)N2c1cc2c(c(C(F)(F)F)c1)CN(c1cccc(C3(Cc4nncn4C)COC3)c1)C2=O [Compound 386, 2-(3-(3-((4-Methyl-4H-1,2,4-triazol-3-yl)methyl)oxetan-3-yl)phenyl)-6-(3-methyl-3,8-diazabicyclo[3.2.1]octan-8-yl)-4-(trifluoromethyl)isoindolin-1-one]",C (C indicates 1.51-2.00),D (D indicates 1.00-1.50),–,–,–,–,–,–,–,–
"C[C@H](Cc1nncn1C)c1cccc(NC(=O)c2cc(C3CC3)cc(C(F)(F)F)n2)c1 [Compound 191, (R)-4-cyclopropyl-N-(3-(1-(4-methyl-4H-1,2,4-triazol-3-yl)propan-2-yl)phenyl)-6-(trifluoromethyl)picolinamide]",D (D indicates 1.00-1.50),D (D indicates 1.00-1.50),D (D indicates 1.00-1.50),D (D indicates 1.00-1.50),B (B indicates 2.01-2.50),D (D indicates 1.00-1.50),–,–,C (C indicates 1.51-2.00),D (D indicates 1.00-1.50)
"Cn1cnnc1C(F)(F)[C@](C)(F)c1cccc(N2Cc3c(cc(CN4CCC(F)(F)C4)cc3C(F)(F)F)C2=O)c1 [Compound 448, (R)-6-((3,3-difluoropyrrolidin-1-yl)methyl)-2-(3-(1,1,2-trifluoro-1-(4-methyl-4H-1,2,4-triazol-3-yl)propan-2-yl)phenyl)-4-(trifluoromethyl)isoindolin-1-one]",D (D indicates 1.00-1.50),E (E indicates <1.00),D (D indicates 1.00-1.50),E (E indicates <1.00),D (D indicates 1.00-1.50),E (E indicates <1.00),–,–,–,–
